{
  "source": "patent US4835155A",
  "about": "“Process for protection of brain cells” (Nippon Chemiphar Co., Ltd., priority 1986, dated 1989)",
  "key": {"[1]": {"details": "pentobarbital acts nonselectively; cited from earlier work"}, "[2]": {"tested_on": "brain cells (delayed neuronal damage)", "details": "Kirino et al., Progress in Brain Research, vol. 63: 39-58 (1985); cited from earlier work"}, "[3]": {"experiment": "Acute toxicity, oral, observed for seven days", "details": "in vivo, ddN male mouse about 20 g"}},
  "note": "Counter-ions that a name gives are not always drawn.",
  "data": [
    {"compound": "CCCC(C)C1(CC)C(=O)NC(=O)NC1=O", "note": "(stereo not shown) [pentobarbital]", "values": [
      {"measurement": "Action on central nervous system", "setting": "[1]", "value": "the action of central nervous system is also strongly subsided"},
      {"measurement": "Effect of protection of brain cells / suppression of delayed neuronal damage", "setting": "[2]", "value": "markedly suppress the above-mentioned delayed neuronal damage"}
    ]},
    {"compound": "COc1cc(C(O)CN2CCN(C(c3ccccc3)c3ccccc3)CC2)cc(OC)c1OC", "note": "(stereo not shown) [B, 2(4-diphenylmethylpiperazinyl)-1-(3,4,5-trimethoxyphenyl)ethanol monohydrochloride]", "values": [
      {"measurement": "LD50 at 168 h", "setting": "[3]", "value": "> 2000", "unit": "mg/kg"}
    ]},
    {"compound": "Oc1ccc(C(O)CN2CCN(C(c3ccccc3)c3ccccc3)CC2)cc1", "note": "(stereo not shown) [C, 2(4-diphenylmethylpiperazinyl)-1-(4-hydroxyphenyl)ethanol monohydrochloride]", "values": [
      {"measurement": "LD50 at 168 h", "setting": "[3]", "value": "> 2000", "unit": "mg/kg"}
    ]}
  ]
}
